Experimental data published in patent publication US11485740B2, “Inhibitors of TRPC6” (Boehringer Ingelheim International GmbH, priority 2018, dated 2022).

target: T1, human TRPC6 (Homo sapiens, UniProt Q9Y210); experiment: High throughput screening assay: Fluo4/AM calcium fluorescence in HEK293/TREx cells expressing human TRPC6, agonist GSK1702934A (single concentration 10 μM and IC50 curves); format: cell-based; settings: antagonist effect against human TRPC6, 7 concentrations 20 μM to 0.027 μM, triplicate
T1 construct: expressed in transfected cells
T1 sequence (Q9Y210 1-931): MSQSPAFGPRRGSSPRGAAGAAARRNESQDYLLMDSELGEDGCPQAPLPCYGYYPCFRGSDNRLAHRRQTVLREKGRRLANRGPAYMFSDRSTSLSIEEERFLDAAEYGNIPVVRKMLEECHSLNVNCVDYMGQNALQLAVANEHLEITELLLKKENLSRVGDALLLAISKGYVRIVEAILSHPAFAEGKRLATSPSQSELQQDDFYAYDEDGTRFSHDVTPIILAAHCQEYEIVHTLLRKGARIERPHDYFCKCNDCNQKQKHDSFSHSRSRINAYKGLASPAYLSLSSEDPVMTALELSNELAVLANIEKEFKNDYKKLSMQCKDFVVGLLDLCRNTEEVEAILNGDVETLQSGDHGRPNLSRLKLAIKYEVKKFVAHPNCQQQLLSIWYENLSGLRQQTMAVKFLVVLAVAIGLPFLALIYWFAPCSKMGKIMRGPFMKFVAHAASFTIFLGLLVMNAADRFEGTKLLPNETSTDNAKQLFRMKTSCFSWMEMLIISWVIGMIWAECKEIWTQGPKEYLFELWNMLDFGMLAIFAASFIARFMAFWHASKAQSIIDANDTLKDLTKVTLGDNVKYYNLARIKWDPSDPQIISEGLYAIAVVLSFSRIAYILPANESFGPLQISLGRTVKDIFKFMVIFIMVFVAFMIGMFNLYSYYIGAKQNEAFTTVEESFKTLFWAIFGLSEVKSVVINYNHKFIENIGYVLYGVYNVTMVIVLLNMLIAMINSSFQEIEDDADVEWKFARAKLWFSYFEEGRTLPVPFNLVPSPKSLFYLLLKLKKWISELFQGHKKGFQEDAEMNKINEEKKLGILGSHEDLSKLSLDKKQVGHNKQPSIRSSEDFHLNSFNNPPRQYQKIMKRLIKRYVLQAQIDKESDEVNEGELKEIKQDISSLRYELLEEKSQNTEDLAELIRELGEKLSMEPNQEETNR
Description: High Throughput Screening Assay
This screening assay measures human TRPC6 (transient receptor potential cation channel, subfamily C, member 6) ion channel activation via addition either of the commercially available DAG ligand analogue OAG (1-oleoyl-2-acetyl-sn-glycerol) or of the TRPC6 agonist 1-[1-(4,5,6,7,8-pentahydrocyclohepta[2,1-d]thiophen-2-ylcarbonyl)-4-piperidyl]-3-hydrobenzimidazol-2-one (GSK1702934A). The assay utilizes a fluorescent calcium sensor 4-(6-Acetoxymethoxy-2,7-difluoro-3-oxo-9-xanthenyl)-4′-methyl-2,2′-(ethylenedioxy)dianiline-N,N,N′,N′-tetraacetic acid tetrakis(acetoxymethyl) ester (Fluo4/AM) dye from Molecular Devices. Changes (increases) in intracellular calcium concentration as measured by the fluorescent signal increase provide a measurement of channel activity.
The commercially available HEK293/TREx line (Invitrogen) was stably transfected with a human TRPC6 construct and screened by conventional calcium imaging to find clones with human TRPC6 expression following stimulation with 1 μg/ml tetracycline. These cells were maintained in the growth medium recommended by the manufacturer supplemented with 100 μg/ml hygromycin to promote retention of the human TRPC6 construct. After growing to near confluency, cells were plated at a density of ^˜35,000 cells/well in 384 well CellBind plates (Corning) in the presence of 1 μg/ml tetracycline, and allowed to grow for 20-30 hrs. A nearly confluent monolayer resulted. Growth media was removed from the wells and cells were then loaded with […] Fluo4/AM diluted in Ringer's Solution (6.5 g NaCl, 0.42 g KCl, 0.25 g CaCl2) and 0.2 g of sodium bicarbonate; pH 7.4) supplemented with 1% Pluronic F-127 to a final concentration of 0.5 μM and incubated for 60 min, at room temperature. Dye solution was then removed from the cells by inverting plates with a sharp flick, and replaced with 25 μl Ringer's. Following ^˜0.5 hour for recovery from loading, cells were assayed using the Hamamatsu FDSS 6000 system, which permitted illumination at 485 nm. Frames were acquired at a rate of 0.2 Hz. During the assay, the plates were continuously vortexed, with pipette mixing of wells following addition of each reagent. For the screening assay, 26 μl of a diluted compound stock (at 50 μM) was added to each well for 2 minutes following the collection of a short (4 frame) baseline. 13 μl of agonist solution consisting of 125 nM GSK1702934A diluted in high-Ca2+Ringer solution (containing 90 mM Ca2+) was then added to each well, achieving a final concentration of 20 mM Ca2+ and 10 μM test compound. Data was collected for ^˜3 minutes following addition of high Ca2+Ringer. The fluorescent intensity observed at a particular timepoint for each well was divided by the initial fluorescent intensity for that well and the overall response was determined by averaging the resulting fluorescent ratio of the last 4 frames acquired during the experiment excepting the final frame. Negative and Positive controls were included on each plate. Negative controls wells consisted of HEK293/TREx TRPC6 cells exposed to assay buffer and agonist solution, but no test compound. Positive control consisted of wells consisted of HEK293/TREx TRPC6 cells exposed to 25 μM 3-[(2-chlorophenoxy)methyl]phenyl piperidyl ketone (Chembridge) diluted in Ringer's solution and agonist solution. These controls defined zero percent and 100 percent block respectively, and intensity of each well was normalized to these values.
Compounds were tested in triplicate at all concentrations. Standard software was used to fit IC50 curves.

| SMILES | IC50 |
| --- | --- |
| COc1cc(C(=O)N2CCC(c3nnc(N)cc3C)CC2)ncc1-c1ccc(C(F)(F)F)cc1 [Compound 88, [4-(6-Amino-4-methyl-pyridazin-3-yl)-piperidin-1-yl]-[4-methoxy-5-(4-trifluoromethyl-phenyl)-pyridin-2-yl]-methanone] | 280 nM |
| COc1cc(C(=O)N2CCC(c3ccc(N)nn3)CC2)ncc1-c1ccc2c(c1)OCC2 [Compound 16, [4-(6-Amino-pyridazin-3-yl)-piperidin-1-yl]-[5-(2,3-dihydro-benzofuran-6-yl)-4-methoxy-pyridin-2-yl]-methanone] | 390 nM |
| COc1cc(C(=O)N2CCC(c3ccc(N)nn3)CC2)ccc1-c1ccc(C(F)(F)F)cc1 [Compound 55, [4-(6-Amino-pyridazin-3-yl)-piperidin-1-yl]-(2-methoxy-4′-trifluoromethyl-biphenyl-4-yl)-methanone] | 430 nM |
| COc1cc(C(=O)N2CCC(c3ccc(N)nn3)CC2)ccc1-c1cnc(OC(C)C)nc1 [Compound 62, [4-(6-Amino-pyridazin-3-yl)-piperidin-1-yl]-[4-(2-isopropoxy-pyrimidin-5-yl)-3-methoxy-phenyl]-methanone] | 1100 nM |
| COc1cc(C(=O)N2CCN(c3ccc(N)nc3)[C@H](C)C2)ccc1-c1ccc(C(F)(F)F)cc1 [Compound 114, [(R)-4-(6-Amino-pyridin-3-yl)-3-methyl-piperazin-1-yl]-(2-methoxy-4′-trifluoromethyl-biphenyl-4-yl)-methanone] | 67 nM |
| Nc1ccc(C2CCN(C(=O)c3ccc(-c4cccc(Cl)c4)cc3)CC2)nn1 [Compound 6, [4-(6-Amino-pyridazin-3-yl)-piperidin-1-yl]-(3′-chloro-biphenyl-4-yl)-methanone] | 4400 nM |
| CCOc1ccc(-c2cnc(C(=O)N3CCC(c4ccc(N)nn4)CC3)cc2OC)cc1 [Compound 37, [4-(6-Amino-pyridazin-3-yl)-piperidin-1-yl]-[5-(4-ethoxy-phenyl)-4-methoxy-pyridin-2-yl]-methanone] | 320 nM |
| COc1cc(C(=O)N2CCC(c3ccc(N)nn3)CC2)ccc1-c1ccc(OCC2(CF)CC2)nc1 [Compound 80, [4-(6-Amino-pyridazin-3-yl)-piperidin-1-yl]-{4-[6-(1-fluoromethyl-cyclopropylmethoxy)-pyridin-3-yl]-3-methoxy-phenyl}-methanone] | 130 nM |
| COc1ccc(-c2ccc(C(=O)N3CCC(c4ccc(N)nn4)CC3)cc2)cc1 [Compound 5, [4-(6-Amino-pyridazin-3-yl)-piperidin-1-yl]-(4′-methoxy-biphenyl-4-yl)-methanone] | 2500 nM |
| COc1cc(C(=O)N2CCC(c3ccc(N)nn3)CC2)ccc1-c1ccc(C(F)(F)F)nc1 [Compound 59, [4-(6-Amino-pyridazin-3-yl)-piperidin-1-yl]-[3-methoxy-4-(6-trifluoromethyl-pyridin-3-yl)-phenyl]-methanone] | 640 nM |
| COc1cc(C(=O)N2CCC(c3ccc(N)nn3)CC2)ncc1-c1ccc(C(F)(F)F)c(F)c1 [Compound 26, [4-(6-Amino-pyridazin-3-yl)-piperidin-1-yl]-[5-(3-fluoro-4-trifluoromethyl-phenyl)-4-methoxy-pyridin-2-yl]-methanone] | 58 nM |
| COc1cc(C(=O)N2CCC(c3ccc(N)nn3)CC2)ncc1-c1ccc(F)c(F)c1 [Compound 33, [4-(6-Amino-pyridazin-3-yl)-piperidin-1-yl]-[5-(3,4-difluoro-phenyl)-4-methoxy-pyridin-2-yl]-methanone] | 62 nM |
| COc1cc(C(=O)N2CCC(c3ccc(N)nn3)CC2)ncc1-c1ccc(OCC2CC2(F)F)nc1 (centres unmarked) [Compound 111, [4-(6-Amino-pyridazin-3-yl)-piperidin-1-yl]-[6′-(2,2-difluoro-cyclopropylmethoxy)-4-methoxy-[3,3′]bipyridinyl-6-yl]-methanone] | 440 nM |
| COc1cc(C(=O)N2CCN(c3cnc(N)cc3OC)CC2)ncc1-c1ccccc1 [Compound 105, 4-Methoxy-5-[4-(4-methoxy-5-phenylpyridine-2-carbonyl)piperazin-1-yl]pyridin-2-amine] | 32 nM |
| COc1cc(C(=O)N2CCC(c3ccc(N)nn3)CC2)ncc1-c1ccc(Cl)cc1 [Compound 40, [4-(6-Amino-pyridazin-3-yl)-piperidin-1-yl]-[5-(4-chloro-phenyl)-4-methoxy-pyridin-2-yl]-methanone] | 73 nM |
| COc1cc(C(=O)N2CCN(c3cnc(N)cc3OC)C[C@@H]2CO)ncc1-c1ccc(C(F)(F)F)cc1 [Compound 95, [(R)-4-(6-Amino-4-methoxy-pyridin-3-yl)-2-hydroxymethyl-piperazin-1-yl]-[4-methoxy-5-(4-trifluoromethyl-phenyl)-pyridin-2-yl]-methanone] | 580 nM |
| CCOc1ccc(-c2cnc(C(=O)N3CCC(c4ccc(N)nn4)CC3)cc2OC)cn1 [Compound 45, [4-(6-Amino-pyridazin-3-yl)-piperidin-1-yl]-(6′-ethoxy-4-methoxy-[3,3′]bipyridinyl-6-yl)-methanone] | 440 nM |
| CC(C)(C)c1ccc(-c2ccc(C(=O)N3CCC(c4ccc(N)nn4)CC3)cc2)cc1 [Compound 10, [4-(6-Amino-pyridazin-3-yl)-piperidin-1-yl]-(4′-tert-butyl-biphenyl-4-yl)-methanone] | 9200 nM |
| COc1cc(C(=O)N2CCC(c3ccc(N)nn3)CC2)ccc1-c1ccccc1 [Compound 60, [4-(6-Amino-pyridazin-3-yl)-piperidin-1-yl]-(2-methoxy-biphenyl-4-yl)-methanone] | 930 nM |
| COc1cc(C(=O)N2CCC(c3ccc(N)nn3)CC2)ncc1-c1ccc(OCC2CC2)cc1 [Compound 17, [4-(6-Amino-pyridazin-3-yl)-piperidin-1-yl]-[5-(4-cyclopropylmethoxy-phenyl)-4-methoxy-pyridin-2-yl]-methanone] | 75 nM |
| Nc1ccc(N2CCN(C(=O)c3ccc(-c4ccc(C(F)(F)F)cc4)cc3)CC2)cn1 [Compound 12, [4-(6-Amino-pyridin-3-yl)-piperazin-1-yl]-(4′-trifluoromethyl-biphenyl-4-yl)-methanone] | 2400 nM |
| COc1cc(C(=O)N2CCC(c3ccc(N)nn3)CC2)ncc1-c1ccc(OC(F)(F)F)nc1 [Compound 48, [4-(6-Amino-pyridazin-3-yl)-piperidin-1-yl]-(4-methoxy-6′-trifluoromethoxy-[3,3′]bipyridinyl-6-yl)-methanone] | 130 nM |
| COc1cc(C(=O)N2CCC(c3ccc(N)nn3)CC2)ncc1-c1ccccc1 [Compound 32, [4-(6-Amino-pyridazin-3-yl)-piperidin-1-yl]-(4-methoxy-5-phenyl-pyridin-2-yl)-methanone] | 110 nM |
